Data reported in paper PMC8619001, “Discovery of New Ginsenol-Like Compounds with High Antiviral Activity” (Molecules, 2021).

Columns and labels:
[1] = in vitro; settings: dog
[2] = test system: influenza virus A/Puerto Rico/8/34 (H1N1); experiment: organism not typed; type: cell-based; settings: for IC50: MDCK, 72 h, read-out: IC50 H1N1
[3] = molecular target: viral hemagglutinin (HA) of influenza virus A/Puerto Rico/8/34 (H1N1) (Influenza A virus, UniProt P03452); type: biochemical
[4] = In vivo toxicity study (LD50)
[5] = test system: A/Anhui/1/2013 (H7N9); experiment: microbe, parasite or virus in culture; type: cell-based, influenza virus A/Anhui/1/2013 (H7N9); settings: Influenza A virus, H1N1 / H7N9, MDCK, 72 h, read-out: IC50 H1N1
[6] = test system: HA of A/California/7/2009 (H1N1); type: biochemical, influenza virus A/California/07/09 (H1N1)pdm09; settings: pH 5
[7] = test system: influenza virus A/Puerto Rico/8/34 (H1N1); type: cell-based
[8] = test system: HA of A/Vladivostok/2/2009 (H1N1); type: biochemical, influenza virus A/Vladivostok/2/2009 (H1N1); settings: pH 5
[9] = test system: HA of influenza viruses A of H3, H5, and H7 subtypes and influenza virus B; type: biochemical; settings: pH 5
[10] = molecular target: HA of A/Puerto Rico/8/34 (Influenza A virus, UniProt P03452); type: biochemical, influenza virus A/Puerto Rico/8/34 (H1N1); settings: pH 5
HA of A/Puerto Rico/8/34, sequence (P03452 18-343 limits assumed): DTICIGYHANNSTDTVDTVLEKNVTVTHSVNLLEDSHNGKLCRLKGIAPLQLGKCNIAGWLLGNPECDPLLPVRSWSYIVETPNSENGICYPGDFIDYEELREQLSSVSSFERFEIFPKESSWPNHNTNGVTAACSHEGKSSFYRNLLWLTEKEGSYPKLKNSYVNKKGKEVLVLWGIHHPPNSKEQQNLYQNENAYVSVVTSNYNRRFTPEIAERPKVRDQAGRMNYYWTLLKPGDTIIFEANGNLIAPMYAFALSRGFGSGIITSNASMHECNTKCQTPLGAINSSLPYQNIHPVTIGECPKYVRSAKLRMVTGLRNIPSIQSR
HA of A/Puerto Rico/8/34, sequence (P03452 344-565 limits assumed): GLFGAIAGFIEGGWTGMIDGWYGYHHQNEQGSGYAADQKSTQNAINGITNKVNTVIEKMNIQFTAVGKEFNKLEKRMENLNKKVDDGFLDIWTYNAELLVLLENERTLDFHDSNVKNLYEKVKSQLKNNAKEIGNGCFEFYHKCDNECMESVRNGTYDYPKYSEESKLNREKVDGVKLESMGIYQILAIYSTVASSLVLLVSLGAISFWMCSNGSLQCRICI

[11] = test system: A/Aichi/2/1968 (H3N2); experiment: microbe, parasite or virus in culture; type: cell-based, influenza virus A/Aichi/2/68 (H3N2); settings: Influenza A virus, H1N1 / H3N2, MDCK, 72 h, read-out: IC50 H1N1
[12] = test system: B/Florida/4/2006 (Yamagata-like); experiment: microbe, parasite or virus in culture; type: cell-based, influenza virus B/Florida/4/2006 (Yamagata-like); settings: Influenza B virus, MDCK, 72 h, read-out: IC50 H1N1
[13] = test system: influenza virus A/Puerto Rico/8/1934 (H1N1); experiment: organism not typed; type: cell-based, influenza virus A/Puerto Rico/8/34 (H1N1); settings: MDCK, 24 h, read-out: IC50 (virus yield reduction)
[14] = test system: A/California/7/2009 (H1N1) pdm09; experiment: microbe, parasite or virus in culture; type: cell-based, influenza virus A/California/07/09 (H1N1)pdm09; settings: Influenza A virus, H1N1, MDCK, 72 h, read-out: IC50 H1N1
[15] = test system: A/Mallard/Pennsylvania/1984 (H5N2); experiment: microbe, parasite or virus in culture; type: cell-based, influenza virus A/mallard/Pennsylvania/10218/84 (H5N2); settings: Influenza A virus, H1N1 / H5N2, MDCK, in Anas platyrhynchos, 72 h, read-out: IC50 H1N1
[16] = test system: HSV-1; parameters: method as in PMID 20008902; settings: HSV-1, Figure 1; cited from earlier work
[17] = test system: influenza virus A/Leningrad/134/17/1957 (H2N2); settings: cited from earlier work

viral hemagglutinin (HA) of influenza virus A/Puerto Rico/8/34 (H1N1), sequence (P03452 18-343 limits assumed): as the sequence (P03452 18-343 limits assumed) above
viral hemagglutinin (HA) of influenza virus A/Puerto Rico/8/34 (H1N1), sequence (P03452 344-565 limits assumed): as the sequence (P03452 344-565 limits assumed) above

| SMILES | CC50 [1] [µM] | SI [2] | IC50 [2] [nM] | other results |
| --- | --- | --- | --- | --- |
| CC(=S)NC12CC(C)(C)C3CCC1(C)CCCC32C (stereo not drawn) [Compound 3, N-(2,2,4,7a-tetramethyloctahydro-3aH-1,4-ethanoinden-3a-yl)ethanethioamide] | > 1130 | 1000 | 1130 ± 190 |  |
| CC(=O)NC12CC(C)(C)C3CCC1(C)CCCC32C [Compound 1a, (1S,3aR,4R,7aS)-N-(2,2,4,7a-tetramethyloctahydro-1,4-etanoinden-3a-yl)-acetamide] | > 1140 |  | 152 ± 30 | Effect on the hemagglutinating titre of the virus [3]: did not change the hemagglutinating titre of the virus; LD50 [4]: > 5000 mg/kg; IC50 [5]: 126 ± 11.8 µM; Inhibition of fusogenic activity of viral HA [6]: less sensitive; Period of presence in the culture medium giving the most pronounced effect [7]: 0 to 2 h post-infection (hpi); Inhibition of fusogenic activity of viral HA [8]: highest activity; Inhibition of fusogenic activity of viral HA [9]: did not decrease their fusogenic activity, or this effect was observed only at the highest concentrations; Inhibition of fusogenic activity of viral HA [10]: highest activity; IC50 [11]: 789 ± 82 µM; IC50 [12]: 1.13 ± 0.141 mM; IC50 [13]: 150 nM; IC50 [14]: 10.7 ± 1.3 µM; IC50 [15]: 133 ± 15.6 µM |
| CCOC(=O)C1=C[C@@H](OC(CC)CC)[C@H](NC(C)=O)[C@@H](N)C1 [Oseltamivir, reference compound] | > 200 |  | 310 ± 40 |  |
| NC(=O)c1ncn([C@@H]2O[C@H](CO)[C@@H](O)[C@H]2O)n1 [Ribavirin, reference compound] |  | >81 | 24600 ± 3700 | CC50 at 72 h [1]: > 2 mM |
| CC1(C)CC2(NC(=O)c3ccccc3)C3(C)CCCC2(C)C1CC3 (stereo not drawn) [Compound 1d, N-(2,2,4,7a-tetramethyloctahydro-3aH-1,4-ethanoinden-3a-yl)benzamide] | 141 ± 11.5 | 15 | 9200 ± 1100 |  |
| CC(C)=CCC/C(C)=C/CC/C(C)=C/CO [Farnesol] |  |  |  | SI [16]: 11 |
| CC(N)C12CC3CC(CC(C3)C1)C2 (stereo not drawn) [Rimantadine, reference compound] | 335 ± 27 | 5 | 67000 ± 4900 |  |
| C=C1CCC2OC2(C)CCC2C1CC2(C)C (stereo not drawn) [beta-Caryophyllene oxide] |  |  |  | SI [16]: 25 |
| C=C1CC/C=C(\C)CC[C@@H]2[C@@H]1CC2(C)C [Caryophyllene] |  |  |  | SI [16]: 140 |
| C[C@H]1CC[C@@]2(O)C(C)(C)[C@@H]3CC[C@@]2(C)[C@H]1C3 [Patchouli alcohol] |  |  |  | SI [17]: 4.9 |
| CC1(C)CC2(N)C3(C)CCCC2(C)C1CC3.Cl (stereo not drawn) [Compound 2, 2,2,4,7a-tetramethyloctahydro-3aH-1,4-ethanoinden-3a-amine hydrochloride] | 15.4 ± 1.2 | 34 | 450 ± 60 | melting point: 257.8 to 261.3 °C |
| CC(C)C(=O)NC12CC(C)(C)C3CCC1(C)CCCC32C (stereo not drawn) [Compound 1c, N-(2,2,4,7a-tetramethyloctahydro-3aH-1,4-ethanoinden-3a-yl)isobutyramide] | > 1030 | 5000 | 210 ± 29 | melting point: 103 °C |
| CCC(=O)NC12CC(C)(C)C3CCC1(C)CCCC32C (stereo not drawn) [Compound 1b, N-(2,2,4,7a-tetramethyloctahydro-3aH-1,4-ethanoinden-3a-yl)propionamide] | 128 ± 9.4 | 890 | 144 ± 19 | melting point: 103 °C |
